# Tests used:
# B16F10 tumors [1] = experiment: In vivo therapy study, tumor growth and survival; design: species or system C57BL/6 mice; conditions: addition of amph-FITC vaccine boosting to E2-28z CAR T cells + intratumoral amph-FITC
# Text: (§1) C57BL/6 WT, CD45.1^+, Batf3 KO, and Rag1 KO mice (Jackson Laboratory, 6 to 8 weeks old) were inoculated with 10^6 B16F10, 10^6 MC38, 10^6 TC-1, or 3×10^6 CT-2A tumor cells subcutaneously at the flank. Once tumors grew to ˜25 mm^2 in area, mice underwent a non-myeloablative 5 Gy dose of TBI administered by a [^137Cs] gamma radiation source, 24 hr prior to adoptive transfer of 10^7 CD45.1+ CAR T cells IV via the tail vein. One day later, mice were vaccinated subcutaneously at the tail base with 10 nmol DSPE-PEG2k-FITC (Creative PEGworks) and 25 μg cyclic di-GMP (Invivogen), and vaccinated for 3 total doses, once weekly. Intratumoral injection of 10 nmol amph-FITC was administered beginning the day after the first vaccination, and continuing every 3 days.
# (§2) For all studies, tumor progression was monitored by caliper measurements. Survival was evaluated over time until tumors exceeded 200 mm^2 in area, were severely ulcerated >1 week, or experienced >20% weight loss. To monitor trafficking of Fluc-expressing CAR T cells, mice were injected subcutaneously at the scruff with 150 mg/kg D-luciferin K^+ Salt (Perkin-Elmer) and imaged on a Xenogen IVIS Spectrum. Prior to imaging, C57BL/6 mice were depilated on their back to improve signal sensitivity.
# CT-2A tumors [2] = experiment: In vivo therapy study, tumor growth and survival; design: species or system C57BL/6 mice; conditions: intratumoral once every 6 days instead of every 3 days
# Text: as §1, §2
# B16F10 melanomas = experiment: Bilateral flank tumors, i.t. amph-FITC only in the 1° lesion; type: in vivo, C57BL/6 mice
# Text: as §1, §2
# CT-2A tumors [3] = experiment: as above; type: in vivo, C57BL/6 mice; conditions: FITC-CAR T cells, amph-FITC vaccination, i.t. amph-FITC right flank only
# Text: as §1, §2
# [4] = test system: B16F10 murine melanoma cells; experiment: Amph-FITC labeling of tumor cells in vitro, flow cytometry; type: cell-based; conditions: incubated 30 min at 37° C.
# Protocol: (§3) Amph-FITC labeling and cytotoxicity studies: For in vitro labeling of tumor cells with amph-FITC, tumor cells were washed with 1×PBS and incubated at a cell density of 10^6 cells/mL for 30 minutes at 37° C. with DSPE-PEGx-FITC, where x=0, 1, 2, 3.4, 5, or 10 kDa (Creative PEGworks) in PBS. For cocultures, target cells were labeled simultaneously with 100 nM amph-FITC and CellTrace Violet (ThermoFisher); 20,000 target cells were seeded per well in a 96-well flat-bottom plate with CAR T cells at the indicated effector-to-target ratios. Following a 16 hr incubation, cells were stained with SYTOX red (ThermoFisher) for flow cytometry, and IFN-γ in the supernatant was quantified using a Mouse IFN gamma Uncoated ELISA Kit (Invitrogen).
# [5] = test system: MC38 murine colon carcinoma cells; experiment: as above; type: cell-based; conditions: 100 nM, 30 min at 37° C.
# Protocol: as §3
# B16F10 tumors [6] = experiment: CAR T cell expansion and tumor homing by bioluminescence imaging; type: in vivo, C57BL/6 mice
# Text: as §1, §2
# B16F10 tumors [7] = test system: B16F10 tumors
# Protocol: For cellular localization studies, MC38 tumor-bearing mice were injected intratumorally with 10 nmol DSPE-PEG2k-FITC, and 24 hr later tumors were enzymatically digested at 37° C. for 30 min with 1 mg/mL collagenase D and 0.2 mg/mL DNase I in complete RPMI media before mechanical dissociation through a 70 μm cell strainer.
# CT-2A glioblastoma cells = experiment: Amph-FITC labeling of tumor cells in vitro, flow cytometry; type: cell-based, murine; conditions: 100 nM, 30 min at 37° C.
# Protocol: as §3
# CT-2A tumors [8] = experiment: T cell infiltration of treated tumors, immunohistochemistry; type: in vivo, C57BL/6 mice; conditions: day 12, i.t. amph-FITC ± amph-FITC vaccine
# Text: as §1
# MSTO-211H tumors = experiment: Xenograft study with human CAR T cells and intratumoral amph-FITC; type: in vivo
# Protocol: For xenograft studies, 6- to 12-week-old NOD.Cg-Prkdc^scidIL2rg^tm1Wj1/SzJ (NSG) mice (Jackson Laboratory) were inoculated with 3×10^6 MSTO-211H cells subcutaneously at the flank. Once tumors grew to ˜25 mm^2, mice were adoptively transferred with 10^7 CAR T cells IV via the tail vein. Intratumoral injection of 10 nmol amph-FITC was administered beginning the day after adoptive transfer, and continuing every 3 days.
# as §2
# For quantification of human CAR T cells in the peripheral blood, spleen, and tumor, tissues were processed as described above, then stained with LIVE/DEAD Aqua, BUV496 anti-CD4 (clone SK3/Leu3a, BD Biosciences), BUV805 anti-CD8α (clone SK1, BD Biosciences), PE anti-myc tag (clone 9B11, Cell Signaling), and APC-Cy7 anti-CD45 (clone 2D1, BioLegend).
# [9] = Toxicity of amph-FITC and FITC CAR T therapy in tumor-bearing mice; type: in vivo, C57BL/6 mice
# Text: as §1, §2
# [10] = injection of only the primary tumor
substance,measurement,setting,value
"1,2-distearoyl-sn-glycero-3-phosphoethanolamine-PEG-FITC [amph-FITC]",increase of median survival,B16F10 tumors [1],3 days
same,therapeutic effect at reduced injection frequency,CT-2A tumors [2],did not reduce the therapeutic effect
same,growth of the treated primary tumor,B16F10 melanomas; [10],slowed growth
same,progression of the untreated lesions,B16F10 melanomas; [10],trend toward slowed progression
same,overall survival,B16F10 melanomas; over untreated animals,substantial increases in overall survival
same,overall survival,CT-2A tumors [3],substantially improved
same,progression of injected (1°) and non-injected (2°) tumors,CT-2A tumors [3],substantially slowed progression
same,FITC exposed on the cell surfaces (anti-FITC antibody staining),[4],exposed on the cell surfaces
same,association of amph-FITC with the cells (total FITC),[4],dose-dependent association
same,association with and exposure on cell surfaces,[5],associate with and be exposed on the surfaces
same,impact on overall T cell expansion or accumulation at the tumor site,B16F10 tumors [6]; addition of the vaccine boost to intratumoral amph-FITC,did not have a significant impact
same,CAR T cell expansion (bioluminescence),B16F10 tumors [6]; i.t. amph-FITC with E2-28z CAR T cells,triggered CAR T cell expansion
same,CAR T cell accumulation at the tumor site,B16F10 tumors [6]; intratumoral amph-FITC compared with amph-FITC vaccination alone,greater accumulation at the tumor site
same,cellular distribution of FITC labeling after lymphodepletion,B16F10 tumors [7]; 5 Gy TBI 24 hours prior to amph-FITC injection,favored labeling of cancer cells in an even greater proportion
same,proportion of each cell type bearing extracellularly exposed FITC,"B16F10 tumors [7]; after 1 hour, cancer cells and host cells",40-60%
same,proportion of cells still bearing exposed FITC,B16F10 tumors [7]; at 24 hours,20-40%
same,cell type numerically dominant among cells surface-decorated with FITC,B16F10 tumors [7]; by 24 hours,majority of cells surface-decorated with FITC were the cancer cells
same,association with and exposure on cell surfaces,CT-2A glioblastoma cells,associate with and be exposed on the surfaces
same,T cell infiltration of treated tumors,CT-2A tumors [8],substantial T cell infiltration throughout the tumor
same,graft vs. host disease,"MSTO-211H tumors; mouse, in vivo",exacerbated GVHD
same,relative expansion of CAR T cells induced by amph-FITC treatment,MSTO-211H tumors; whole mouse radiance,13.3 fold
same,body weight,"[9]; CAR T cells with intratumoral amph-FITC and amph-FITC vaccination, versus untreated control",no weight loss
same,inflammation of the skin surrounding treated tumors,[9]; local i.t. administration during treatment,no obvious inflammation

# — patent US20230372395A1, “CAR CELLS TARGETING AN INSERTED LIGAND” (Massachusetts Institute of Technology, priority 2022, published 2023)
